Measurements: paper PMC3076703 (Pharmacogenetics and genomics, 2010)
Positions count from the first letter of the chain named.

Columns and labels:
[1] = tested on: UGTs 1A1, 1A3, 1A6, 1A7, 1A9, 2B4, 2B7, 2B10, 2B11, 2B15; format: in vitro ADME, human; conditions: other UGTs screened; up to 1 mg of UGT-overexpressing cell homogenate
[2] = target: T1, UGT1A4^24Pro/48Leu (Homo sapiens, UniProt P22310); assay: Glucuronidation assay, UGT1A4 24Pro/48Leu-overexpressing HEK293 cell homogenate; format: in vitro ADME
T1 sequence (P22310 29-534): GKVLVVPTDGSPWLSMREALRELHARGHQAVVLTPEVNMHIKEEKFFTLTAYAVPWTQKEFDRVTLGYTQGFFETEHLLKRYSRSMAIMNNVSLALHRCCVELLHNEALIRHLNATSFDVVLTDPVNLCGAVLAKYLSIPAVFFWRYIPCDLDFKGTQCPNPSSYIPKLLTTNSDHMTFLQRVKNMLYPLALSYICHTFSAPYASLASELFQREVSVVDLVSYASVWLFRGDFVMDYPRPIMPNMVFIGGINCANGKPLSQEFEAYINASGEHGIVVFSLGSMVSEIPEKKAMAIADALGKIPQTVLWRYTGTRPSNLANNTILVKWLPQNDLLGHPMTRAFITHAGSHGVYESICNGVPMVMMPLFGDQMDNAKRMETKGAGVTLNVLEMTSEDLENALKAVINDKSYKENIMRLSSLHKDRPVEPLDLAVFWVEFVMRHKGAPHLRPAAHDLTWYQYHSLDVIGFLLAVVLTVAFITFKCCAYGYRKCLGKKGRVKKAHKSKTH

[3] = target: T2, UGT2B17 (Homo sapiens, UniProt O75795); format: in vitro ADME
T2 sequence (O75795 24-530): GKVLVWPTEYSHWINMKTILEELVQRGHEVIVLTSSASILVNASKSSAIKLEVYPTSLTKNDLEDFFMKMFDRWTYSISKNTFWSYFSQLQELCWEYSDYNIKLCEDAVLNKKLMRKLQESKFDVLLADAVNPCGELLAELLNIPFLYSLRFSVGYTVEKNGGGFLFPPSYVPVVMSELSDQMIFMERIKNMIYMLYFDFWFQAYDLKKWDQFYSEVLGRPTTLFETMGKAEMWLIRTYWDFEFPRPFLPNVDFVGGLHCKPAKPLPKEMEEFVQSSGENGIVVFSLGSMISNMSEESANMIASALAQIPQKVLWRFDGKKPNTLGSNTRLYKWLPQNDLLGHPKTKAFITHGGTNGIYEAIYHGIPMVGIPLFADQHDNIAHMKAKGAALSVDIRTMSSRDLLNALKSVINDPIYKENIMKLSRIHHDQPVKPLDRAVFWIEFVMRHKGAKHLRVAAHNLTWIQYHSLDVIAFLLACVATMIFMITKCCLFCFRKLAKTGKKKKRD

[4] = target: T3, UGT1A4^24Thr/48Leu (Homo sapiens, UniProt P22310); assay: Glucuronidation assay, UGT1A4 24Thr/48Leu-overexpressing HEK293 cell homogenate; format: in vitro ADME
T3 sequence (P22310 29-534): T1 sequence (P22310 29-534)

[5] = target: T4, UGT1A4^24Pro/48Val (Homo sapiens, UniProt P22310, L48V); format: in vitro ADME
T4 sequence (P22310 29-534 L48V): T1 sequence (P22310 29-534) with L20V

[6] = individuals taking exemestane; cited from earlier work
[7] = target: T5, UGT1A8 (Homo sapiens, UniProt Q9HAW9); assay: Glucuronidation assay, UGT1A8-overexpressing HEK293 cell homogenate; format: in vitro ADME
T5 sequence (Q9HAW9 26-530): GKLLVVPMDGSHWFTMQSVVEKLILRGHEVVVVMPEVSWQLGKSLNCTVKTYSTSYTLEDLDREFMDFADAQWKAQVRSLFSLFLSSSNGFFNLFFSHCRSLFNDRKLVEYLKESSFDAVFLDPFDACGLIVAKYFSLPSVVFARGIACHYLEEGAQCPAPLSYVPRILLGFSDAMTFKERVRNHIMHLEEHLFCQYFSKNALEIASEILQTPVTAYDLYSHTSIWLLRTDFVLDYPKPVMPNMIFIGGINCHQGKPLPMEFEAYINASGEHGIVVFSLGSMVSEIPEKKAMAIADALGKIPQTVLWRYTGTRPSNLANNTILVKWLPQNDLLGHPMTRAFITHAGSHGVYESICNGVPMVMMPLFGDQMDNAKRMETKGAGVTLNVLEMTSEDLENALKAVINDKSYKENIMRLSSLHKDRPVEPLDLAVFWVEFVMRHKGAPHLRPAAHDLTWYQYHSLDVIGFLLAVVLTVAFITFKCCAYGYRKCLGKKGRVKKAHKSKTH

[8] = human; cited from earlier work

Row | SMILES | glucuronidation activity in UGT screen [1] | Km ([2]; UGT1A4 24Pro/48Leu) [µM] | Vmax ([2]; UGT1A4 24Pro/48Leu, normalized per μg UGT protein) [pmol/min/μg UGT protein] | glucuronidation activity in UGT screen ([2]; UGT1A4, up to 600 μmol/l substrate) | Km [3] [µM] | Vmax ([3]; normalized per μg UGT protein) [pmol/min/μg UGT protein] | glucuronidation activity in UGT screen ([3]; up to 600 μmol/l substrate) | Km [4] [µM] | Vmax ([4]; normalized per μg UGT protein) [pmol/min/μg UGT protein] | Km [5] [µM] | Vmax ([5]; normalized per μg UGT protein) [pmol/min/μg UGT protein] | plasma level as share of parent exemestane [6] | Km [7] [µM] | Vmax ([7]; normalized per μg UGT protein) [pmol/min/μg UGT protein] | glucuronidation activity in UGT screen ([7]; up to 600 μmol/l substrate) | excreted as parent compound [8] [%] | fecal excretion [8] | urinary excretion [8]
1 | C=C1C[C@H]2[C@@H]3CC[C@H](O)[C@@]3(C)CC[C@@H]2[C@@]2(C)C=CC(=O)C=C12 [17-dihydroexemestane] | None of the other UGTs screened in our assays exhibited any glucuronidation activity | 34 ± 3.9 | 0.27 ± 0.01 | detectable activity | 15 ± 2.7 | 2.0 ± 0.25 | detectable activity | 28 ± 7.8 | 0.26 ± 0.04 | 36 ± 5.4 | 0.40 ± 0.03 | 35–40% | 14 ± 3.9 | 0.30 ± 0.06 | detectable activity |  |  | 
2 | C=C1C[C@@H]2[C@H](CC[C@]3(C)C(=O)CC[C@@H]23)[C@@]2(C)C=CC(=O)C=C12 [exemestane, 6-methylenandrosta-1,4-diene-3,17-dione] |  |  |  |  |  |  |  |  |  |  |  |  |  |  |  | 1 | around 42% | around 42%
